Source: ChEMBL document CHEMBL5523755, “Design, Synthesis, and Biological Evaluation of 1,4-Dihydropyridine-Indole as a Potential Antidiabetic Agent via GLUT4 Translocation Stimulation” (J Med Chem, 2024)
The source made the active and inactive calls. The calls are words filed in the database; no cut-off is given here.

How the values were obtained:
[1] = biological target: T1, Solute carrier family 2, facilitated glucose transporter member 4 (Rattus norvegicus) (UniProt P19357); test: Induction of GLUT4 translocation in rat L6-GLUT4myc skeletal muscle cells assessed as translocation to cell surface by measuring fold stimulation at 10 uM measured after 1 hr incubation by antibody-coupled colorimetric assay relative to control; type: cell-based; conditions: filed as modulator
T1 sequence (whole entry): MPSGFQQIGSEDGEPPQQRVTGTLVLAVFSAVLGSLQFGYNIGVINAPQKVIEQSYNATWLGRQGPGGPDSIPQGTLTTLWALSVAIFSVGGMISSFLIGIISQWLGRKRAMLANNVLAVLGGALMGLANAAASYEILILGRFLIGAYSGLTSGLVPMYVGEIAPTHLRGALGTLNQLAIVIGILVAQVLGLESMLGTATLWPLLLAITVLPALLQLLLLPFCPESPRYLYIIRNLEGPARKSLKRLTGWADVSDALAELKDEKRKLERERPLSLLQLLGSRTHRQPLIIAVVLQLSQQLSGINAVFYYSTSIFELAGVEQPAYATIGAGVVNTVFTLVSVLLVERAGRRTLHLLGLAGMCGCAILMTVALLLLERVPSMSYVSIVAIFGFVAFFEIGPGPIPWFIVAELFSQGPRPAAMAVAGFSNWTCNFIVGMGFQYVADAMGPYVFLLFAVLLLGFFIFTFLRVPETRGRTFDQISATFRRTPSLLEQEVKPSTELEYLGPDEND

[2] = biological target: T1, Solute carrier family 2, facilitated glucose transporter member 4 (Rattus norvegicus); test: Induction of GLUT4 translocation in rat L6-GLUT4myc skeletal muscle cells assessed as translocation to cell surface by measuring fold stimulation measured after 16 hrs incubation by antibody-coupled colorimetric assay relative to control; type: cell-based; conditions: filed as modulator, dose 5-25 µM
[3] = biological target: T2, Beta-galactosidase (Homo sapiens) (UniProt P16278); test: Inhibition of beta-galactosidase (unknown origin) at 100 uM relative to control
T2 sequence (whole entry): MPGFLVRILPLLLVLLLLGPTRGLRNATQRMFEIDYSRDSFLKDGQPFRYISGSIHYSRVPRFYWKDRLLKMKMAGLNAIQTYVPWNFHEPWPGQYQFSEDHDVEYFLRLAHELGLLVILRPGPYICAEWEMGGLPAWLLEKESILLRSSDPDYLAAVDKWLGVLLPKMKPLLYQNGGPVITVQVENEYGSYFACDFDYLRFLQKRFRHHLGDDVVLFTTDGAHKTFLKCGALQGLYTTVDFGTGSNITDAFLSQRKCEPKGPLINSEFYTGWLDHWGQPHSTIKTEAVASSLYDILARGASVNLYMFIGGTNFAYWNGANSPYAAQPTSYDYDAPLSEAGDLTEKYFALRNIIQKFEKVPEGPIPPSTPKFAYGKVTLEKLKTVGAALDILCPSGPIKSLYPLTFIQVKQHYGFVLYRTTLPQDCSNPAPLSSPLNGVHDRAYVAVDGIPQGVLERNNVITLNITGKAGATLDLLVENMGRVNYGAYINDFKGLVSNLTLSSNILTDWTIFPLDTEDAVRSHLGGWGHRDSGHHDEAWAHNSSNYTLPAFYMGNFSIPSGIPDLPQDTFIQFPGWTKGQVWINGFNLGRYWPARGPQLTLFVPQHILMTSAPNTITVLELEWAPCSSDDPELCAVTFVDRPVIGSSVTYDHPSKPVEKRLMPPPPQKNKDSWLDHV

[4] = biological target: T1, Solute carrier family 2, facilitated glucose transporter member 4 (Rattus norvegicus); test: Induction of GLUT4 translocation in rat L6-GLUT4myc skeletal muscle cells assessed as translocation to cell surface by measuring fold stimulation at 500 uM measured after 1 hr incubation by antibody-coupled colorimetric assay relative to control; type: cell-based; conditions: filed as modulator
[5] = biological target: RAC-alpha serine/threonine-protein kinase (Rattus norvegicus) (UniProt P47196); test: Induction of AKT phosphorylation at Ser 473 in rat L6-GLUT4myc skeletal muscle cells at 10 uM measured after 16 hrs incubation by immunoblotting analysis; type: cell-based; conditions: filed as modulator
Sequence of RAC-alpha serine/threonine-protein kinase (Rattus norvegicus) (P47196 whole entry): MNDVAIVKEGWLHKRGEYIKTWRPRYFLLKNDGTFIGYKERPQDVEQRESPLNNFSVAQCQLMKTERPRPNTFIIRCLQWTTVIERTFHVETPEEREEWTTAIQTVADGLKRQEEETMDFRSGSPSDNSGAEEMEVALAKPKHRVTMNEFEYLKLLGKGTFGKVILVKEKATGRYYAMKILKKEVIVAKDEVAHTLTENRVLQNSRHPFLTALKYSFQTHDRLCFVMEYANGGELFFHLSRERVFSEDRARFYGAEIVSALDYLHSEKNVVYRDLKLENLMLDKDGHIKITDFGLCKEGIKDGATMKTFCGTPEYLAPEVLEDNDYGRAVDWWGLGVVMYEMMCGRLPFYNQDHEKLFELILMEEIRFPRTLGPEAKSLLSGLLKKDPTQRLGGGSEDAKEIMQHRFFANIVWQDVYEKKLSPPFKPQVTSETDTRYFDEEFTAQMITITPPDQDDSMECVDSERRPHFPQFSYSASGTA

[6] = Tmax in Sprague-Dawley rat at 100 mg/kg, po measured after 48 hrs by LC-MS/MS analysis; type: ADME, organism-based; conditions: in vivo
[7] = Cmax in Sprague-Dawley rat at 100 mg/kg, po measured after 48 hrs by LC-MS/MS analysis; type: ADME, organism-based; conditions: in vivo
[8] = Clearance in Sprague-Dawley rat at 100 mg/kg, po measured after 48 hrs by LC-MS/MS analysis; type: ADME, organism-based; conditions: in vivo
L6-GLUT4myc = test: Induction of GPR40 expression in rat L6-GLUT4myc skeletal muscle cells assessed as increase in mRNA level at 10 uM measured after overnight incubation by RT-PCR analysis; type: functional, cell-based; conditions: filed as activator
[9] = biological target: T1, Solute carrier family 2, facilitated glucose transporter member 4 (Rattus norvegicus); test: Induction of GLUT4 translocation in rat L6-GLUT4myc skeletal muscle cells assessed as translocation to cell surface by measuring fold stimulation at 10 uM measured after 16 hrs incubation in presence of compound c AMPK inhibitor by antibody-coupled colorimetric assay; type: cell-based; conditions: filed as modulator
[10] = Elimination half life in Sprague-Dawley rat at 100 mg/kg, po measured after 48 hrs by LC-MS/MS analysis; type: ADME, organism-based; conditions: in vivo, read-out: beta t1/2 (converted)
[11] = MRT in Sprague-Dawley rat at 100 mg/kg, po measured after 48 hrs by LC-MS/MS analysis; type: ADME, organism-based; conditions: in vivo
[12] = Apparent volume of distribution in Sprague-Dawley rat at 100 mg/kg, po measured after 48 hrs by LC-MS/MS analysis; type: ADME, organism-based; conditions: in vivo
[13] = AUC in Sprague-Dawley rat at 100 mg/kg, po measured after 48 hrs by LC-MS/MS analysis; type: ADME, organism-based; conditions: in vivo
[14] = Stability of the compound in simulated intestinal fluid (SIF) assessed as compound remaining measured upto 120 mins relative to control; type: ADME; conditions: read-out: Stability
[15] = biological target: T1, Solute carrier family 2, facilitated glucose transporter member 4 (Rattus norvegicus); test: Induction of GLUT4 translocation in rat L6-GLUT4myc skeletal muscle cells assessed as translocation to cell surface by measuring fold stimulation at 10 uM measured after 16 hrs incubation in presence of wortmannin PI3 Kinase inhibitor by antibody-coupled colorimetric assay; type: cell-based
[16] = Stability of the compound in simulated physiological fluid (SPF) assessed as compound remaining measured upto 120 mins relative to control; type: ADME; conditions: read-out: Stability
[17] = biological target: T1, Solute carrier family 2, facilitated glucose transporter member 4 (Rattus norvegicus); test: Induction of insulin-induced GLUT4 translocation in rat L6-GLUT4myc skeletal muscle cells assessed as translocation to cell surface at 10 uM measured after 16 hrs incubation (final 3 hrs under serum starved medium) followed by stimulated with 100 nM insulin for 20 mins by antibody-coupled colorimetric assay; type: cell-based
[18] = Stability of the compound in rat plasma assessed as compound remaining measured upto 120 mins relative to control; type: ADME, cell-free; conditions: read-out: Stability
[19] = Stability of the compound in simulated gastric fluid (SGF) assessed as compound remaining measured upto 120 mins relative to control; type: ADME; conditions: read-out: Stability
Rattus norvegicus = test: Antihyperglycemic activity in STZ-induced Sprague-Dawley rat diabetic model assessed as decrease in blood glucose at 100 mg/kg, po measured upto 300 mins; type: functional, organism-based

Structure (SMILES) | fold change (FC) [1] | further results
CC1=C(C(=O)NCCc2c[nH]c3ccccc23)C(c2cccc([N+](=O)[O-])c2)C2=C(CCCC2=O)N1 (stereo not drawn) | 1.71 | 
CC1=C(C(=O)NCCc2c[nH]c3ccccc23)C(c2ccc(C#N)cc2)C2=C(CC(C)(C)CC2=O)N1 (stereo not drawn) | 0.96 | 
CC1=C(C(=O)NCCc2c[nH]c3ccccc23)C(c2ccsc2)C2=C(CCCC2=O)N1 (stereo not drawn) | 1.64 | 
CC1=C(C(=O)NCCc2c[nH]c3ccccc23)C(c2scnc2C)C2=C(CC(C)(C)CC2=O)N1 (stereo not drawn) | 1 | 
CC1=C(C(=O)NCCc2c[nH]c3ccccc23)C(c2c(Cl)cccc2Cl)C2=C(CC(C)(C)CC2=O)N1 (stereo not drawn) | 0.82 | 
CC1=C(C(=O)NCCc2c[nH]c3ccccc23)C(c2ccsc2)C2=C(CC(C)(C)CC2=O)N1 (stereo not drawn) | 1.87 | Activity [2]: Dose-Dependent Effect
CC1=C(C(=O)NCCc2c[nH]c3ccccc23)C(c2ccc(O)c(O)c2)C2=C(CC(C)(C)CC2=O)N1 (stereo not drawn) | 0.99 | 
CSc1ccc(C2C(C(=O)NCCc3c[nH]c4ccccc34)=C(C)NC3=C2C(=O)CC(C)(C)C3)cc1 (stereo not drawn) | 1.33 | 
COc1ccc2[nH]cc(CCNC(=O)C3=C(C)NC4=C(C(=O)CC(C)(C)C4)C3c3ccc(Cl)c(Cl)c3)c2c1 (stereo not drawn) | 1.37 | 
CCNC(=O)C1=C(C)NC2=C(C(=O)CC(C)(C)C2)C1c1ccc(Cl)c(Cl)c1 (stereo not drawn) | 1.16 | 
O=C(NC(Cc1c[nH]c2ccccc12)C(=O)O)c1cccc(Cl)c1 (stereo not drawn) |  | inhibition [3]: 49%
COc1ccc(C2C(C(=O)NCCc3c[nH]c4ccccc34)=C(C)NC3=C2C(=O)CCC3)cc1OC (stereo not drawn) | 1.48 | 
CC1=C(C(=O)NCCc2c[nH]c3ccccc23)C(c2ccco2)C2=C(CC(C)(C)CC2=O)N1 (stereo not drawn) | 2.01 | Activity [2]: Dose-Dependent Effect
CC1=C(C(=O)NCCc2c[nH]c3ccccc23)C(c2ccc(C(F)(F)F)cc2)C2=C(CC(C)(C)CC2=O)N1 (stereo not drawn) | 1.58 | 
CC1=C(C(=O)NCCc2c[nH]c3ccccc23)C(c2ccc(OC(F)(F)F)cc2)C2=C(CC(C)(C)CC2=O)N1 (stereo not drawn) | 2.11 | Activity [2]: Dose-Dependent Effect
COc1cc(C2C(C(=O)NCCc3c[nH]c4ccccc34)=C(C)NC3=C2C(=O)CC(C)(C)C3)cc(OC)c1OC (stereo not drawn) | 1.21 | 
CC1=C(C(=O)NCCc2c(C)[nH]c3ccccc23)C(c2ccc(Cl)c(Cl)c2)C2=C(CC(C)(C)CC2=O)N1 (stereo not drawn) | 1.42 | 
CC1=C(C(=O)NCCc2c[nH]c3ccccc23)C(c2ccc(F)cc2)C2=C(CCCC2=O)N1 (stereo not drawn) | 1.54 | 

Structure (SMILES) | fold change (FC) [1] | further results
CN(C)C(=N)NC(=N)N |  | fold change (FC) [4]: 1.86
CC1=C(C(=O)NCCc2c[nH]c3ccccc23)C(c2ccco2)C2=C(CCCC2=O)N1 (stereo not drawn) | 1.62 | 
CC1=C(C(=O)Nc2ccccc2)C(c2ccc(Cl)c(Cl)c2)C2=C(CC(C)(C)CC2=O)N1 (stereo not drawn) | 1.1 | 
CC1=C(C(=O)NCCc2c[nH]c3ccccc23)C(c2ccc(Cl)cc2)C2=C(CC(C)(C)CC2=O)N1 (stereo not drawn) | 1.49 | 
CC(=O)CC(=O)NCCc1c[nH]c2ccccc12 | 1.18 | 
COc1ccc(C2C(C(=O)NCCc3c[nH]c4ccccc34)=C(C)NC3=C2C(=O)CC(C)(C)C3)cc1OC (stereo not drawn) | 1.3 | 
CC1=C(C(=O)NCCc2c[nH]c3ccccc23)C(c2cccc(Cl)c2Cl)C2=C(CC(C)(C)CC2=O)N1 (stereo not drawn) | 1.52 | 
CCOC(=O)C1=C(C)NC2=C(C(=O)CC(C)(C)C2)C1c1ccc(Cl)c(Cl)c1 (stereo not drawn) | 1.92 | 
CC1=C(C(=O)NCCc2c[nH]c3ccccc23)C(c2ccc(Cl)c(Cl)c2)C2=C(CC(C)(C)CC2=O)N1 (stereo not drawn) | 2.96 | Activity [5]: Active; Tmax [6]: 0.42 h; Cmax [7]: 51.7 ng/mL; CL/F [8]: 254 L/h/kg; Activity (L6-GLUT4myc): Active; Activity [9]: Active; half-life [10]: 14.3 h; MRT [11]: 20.8 h; Vd(app) [12]: 5281.28 L/kg; AUC at 48 h [13]: 367 ng·h/mL; remaining at 2 h [14]: 91.1%; Activity [15]: inactive; Activity [2]: Dose-Dependent Effect; remaining at 2 h [16]: 96.2%; Activity [17]: inactive; remaining at 2 h [18]: 90.2%; remaining at 2 h [19]: 90.8%; Activity (Rattus norvegicus): Active
CC1=C(C(=O)NCCc2c[nH]c3ccccc23)C(c2cccs2)C2=C(CC(C)(C)CC2=O)N1 (stereo not drawn) | 1.09 | 
CC1=C(C(=O)NCCc2c[nH]c3ccccc23)C(c2ccc(F)cc2)C2=C(CC(C)(C)CC2=O)N1 (stereo not drawn) | 1 | 
NCCc1c[nH]c2ccccc12 | 1.08 | 
COc1ccc(C2C(C(=O)NCCc3c[nH]c4ccccc34)=C(C)NC3=C2C(=O)CC(C)(C)C3)cc1 (stereo not drawn) | 1.39 | 
CC1=C(C(=O)NCCc2c[nH]c3ccccc23)C(c2cccc([N+](=O)[O-])c2)C2=C(CC(C)(C)CC2=O)N1 (stereo not drawn) | 1.86 | Activity [2]: Dose-Dependent Effect
COc1cc(C2C(C(=O)NCCc3c[nH]c4ccccc34)=C(C)NC3=C2C(=O)CCC3)cc(OC)c1OC (stereo not drawn) | 1.79 | Activity [2]: Dose-Dependent Effect
Cc1nc2c(c(-c3ccc(Cl)c(Cl)c3)c1C(=O)NCCc1c[nH]c3ccccc13)C(=O)CC(C)(C)C2 | 1.42 | 
CC1=C(C(=O)NCCc2c[nH]c3ccccc23)C(c2ccc([N+](=O)[O-])cc2)C2=C(CC(C)(C)CC2=O)N1 (stereo not drawn) | 1.72 | 
